Reference: article PMC12454493, “Insight on novel sulfamoylphenyl pyrazole derivatives as anticancer carbonic anhydrase inhibitors” (Molecular Diversity, 2024)

Tests used:
[1] = tested on: A549/ATCC; test: NCI-60 one-dose SRB screen (Non-Small Cell Lung Cancer); type: cell-based; conditions: Homo sapiens, single dose 10 µM, 48 h, read-out: Growth inhibition percent (GI %)
Procedure: (§1) The National Cancer Institute (NCI) Developmental Therapeutic Program (www.dtp.nci.nih.gov) selected the 20 novel synthesized compounds 4a-e, 5a-e, 6a-c, 9a-e, 10 and 11 to test for their anticancer activity at a single dose of 10 µM using SRB assay. […] Supplementary Data S3; Table S1 presents the detailed screening results of the most promising compounds. The preliminary screening’s detailed results for the remaining compounds are elucidated in the (Supplementary Data S3; Table S2).
(§2) The guidelines of the Drug Evaluation Branch’s protocol at the NCI in Bethesda served as the basis for the in vitro anticancer screening assays. at one dose 10 µM against a panel of 60 cancer cell lines. The human tumor cell lines used belonged to nine panels: leukemia, melanoma, lung, colon, CNS, ovarian, renal, prostate and breast cancers using the sulforhodamine B (SRB) assay in a 48 h drug exposure protocol.

[2] = tested on: EKVX; test: as above; type: cell-based; conditions: Homo sapiens, single dose 10 µM, 48 h, read-out: Growth inhibition percent (GI %)
Procedure: as §1, §2

[3] = tested on: HOP-62; test: as above; type: cell-based; conditions: Homo sapiens, single dose 10 µM, 48 h, read-out: Growth inhibition percent (GI %)
Procedure: as §1, §2

[4] = tested on: HOP-92; test: as above; type: cell-based; conditions: Homo sapiens, single dose 10 µM, 48 h, read-out: Growth inhibition percent (GI %)
Procedure: as §1, §2

[5] = tested on: NCI-H226; test: as above; type: cell-based; conditions: Homo sapiens, single dose 10 µM, 48 h, read-out: Growth inhibition percent (GI %)
Procedure: as §1, §2

[6] = tested on: NCI-H23; test: as above; type: cell-based; conditions: Homo sapiens, single dose 10 µM, 48 h, read-out: Growth inhibition percent (GI %)
Procedure: as §1, §2

[7] = tested on: NCI-H322M; test: as above; type: cell-based; conditions: Homo sapiens, single dose 10 µM, 48 h, read-out: Growth inhibition percent (GI %)
Procedure: as §1, §2

[8] = tested on: NCI-H460; test: as above; type: cell-based; conditions: Homo sapiens, single dose 10 µM, 48 h, read-out: Growth inhibition percent (GI %)
Procedure: as §1, §2

[9] = tested on: NCI-H522; test: as above; type: cell-based; conditions: Homo sapiens, single dose 10 µM, 48 h, read-out: Growth inhibition percent (GI %)
Procedure: as §1, §2

[10] = tested on: SF-268; test: NCI-60 one-dose SRB screen (CNS Cancer); type: cell-based; conditions: Homo sapiens, single dose 10 µM, 48 h, read-out: Growth inhibition percent (GI %)
Procedure: as §1, §2

[11] = tested on: SF-295; test: NCI-60 one-dose SRB screen (CNS Cancer); type: cell-based; conditions: Homo sapiens, single dose 10 µM, 48 h, read-out: Growth inhibition percent (GI %)
Procedure: as §1, §2

[12] = tested on: SF-539; test: NCI-60 one-dose SRB screen (CNS Cancer); type: cell-based; conditions: Homo sapiens, single dose 10 µM, 48 h, read-out: Growth inhibition percent (GI %)
Procedure: as §1, §2

[13] = tested on: SNB-19; test: NCI-60 one-dose SRB screen (CNS Cancer); type: cell-based; conditions: Homo sapiens, single dose 10 µM, 48 h, read-out: Growth inhibition percent (GI %)
Procedure: as §1, §2

[14] = tested on: SNB-75; test: NCI-60 one-dose SRB screen (CNS Cancer); type: cell-based; conditions: Homo sapiens, single dose 10 µM, 48 h, read-out: Growth inhibition percent (GI %)
Procedure: as §1, §2

[15] = tested on: U251; test: NCI-60 one-dose SRB screen (CNS Cancer); type: cell-based; conditions: Homo sapiens, U-251, single dose 10 µM, 48 h, read-out: Growth inhibition percent (GI %)
Procedure: as §1, §2

[16] = tested on: OVCAR-5; test: NCI-60 one-dose SRB screen (Ovarian cancer); type: cell-based; conditions: Homo sapiens, single dose 10 µM, 48 h, read-out: Growth inhibition percent (GI %)
[17] = tested on: SK-OV-3; test: NCI-60 one-dose SRB screen (Ovarian cancer); type: cell-based; conditions: Homo sapiens, single dose 10 µM, 48 h, read-out: Growth inhibition percent (GI %)

In the case of NS(=O)(=O)c1ccc(-n2cc(C(=O)OCC(=O)Nc3nnc(S(N)(=O)=O)s3)c(-c3ccccc3)n2)cc1 [Compound 6a, 2-Oxo-2-[(5-sulfamoyl-1,3,4-thiadiazol-2-yl)amino] ethyl 3-phenyl-1-(4-sulfamoylphenyl)-1H-pyrazole-4-carboxylate], the inhibition at 10 µM [1] is reported as < 5%, the inhibition at 10 µM [2] is reported as 9.86% and the inhibition at 10 µM [3] is reported as < 5%. The inhibition at 10 µM [4] was < 5%, the inhibition at 10 µM [5] was 16.2% and the inhibition at 10 µM [6] was < 5%. The inhibition at 10 µM [7] was < 5%, the inhibition at 10 µM [8] was < 5% and the inhibition at 10 µM [9] was 13.3%. The inhibition at 10 µM [10] was < 5%, the inhibition at 10 µM [11] was < 5% and the inhibition at 10 µM [12] was < 5%. For the same compound, the inhibition at 10 µM [13] was 6.91%, the inhibition at 10 µM [14] was 5.39% and the inhibition at 10 µM [15] was < 5%. For the same compound, the inhibition at 10 µM [16] was < 5%, the inhibition at 10 µM [17] was 54.6% and the melting point was 135 to 137 °C.

With Cc1ccc(-c2nn(-c3ccc(S(N)(=O)=O)cc3)cc2C(=O)OCC(=O)Nc2nnc(S(N)(=O)=O)s2)cc1 [Compound 6b, 2-Oxo-2-[(5-sulfamoyl-1,3,4-thiadiazol-2-yl)amino] ethyl 1-(4-sulfamoylphenyl)-3-(p-tolyl)-1H-pyrazole-4-carboxylate] the inhibition at 10 µM [1] was < 5%, the inhibition at 10 µM [2] was 7.25% and the inhibition at 10 µM [3] was < 5%. For the same compound, the inhibition at 10 µM [4] was 22.2%, the inhibition at 10 µM [5] was 13.3% and the inhibition at 10 µM [6] was 9.63%. The inhibition at 10 µM [7] was < 5%, the inhibition at 10 µM [8] was < 5% and the inhibition at 10 µM [9] was < 5%. The inhibition at 10 µM [10] was 9.87%, the inhibition at 10 µM [11] was < 5% and the inhibition at 10 µM [12] was 7.75%. The inhibition at 10 µM [13] was 5.72%, the inhibition at 10 µM [14] was 23.9% and the inhibition at 10 µM [15] was < 5%. For the same compound, the inhibition at 10 µM [16] was < 5%, the inhibition at 10 µM [17] was < 5% and the melting point was 115 to 120 °C.

For COc1ccc(-c2nn(-c3ccc(S(N)(=O)=O)cc3)cc2C(=O)OCC(=O)Nc2nnc(S(N)(=O)=O)s2)cc1 [Compound 6c, 2-Oxo-2-[(5-sulfamoyl-1,3,4-thiadiazol-2-yl)amino] ethyl 3-(4-methoxyphenyl)-1-(4-sulfamoylphenyl)-1H-pyrazole-4-carboxylate], the inhibition at 10 µM [1] was < 5%, the inhibition at 10 µM [2] was 11.2% and the inhibition at 10 µM [3] was < 5%. The inhibition at 10 µM [4] was 27.4%, the inhibition at 10 µM [5] was 8.69% and the inhibition at 10 µM [6] was < 5%. The inhibition at 10 µM [7] was < 5%, the inhibition at 10 µM [8] was < 5% and the inhibition at 10 µM [9] was 5.91%. The inhibition at 10 µM [10] was < 5%, the inhibition at 10 µM [11] was < 5% and the inhibition at 10 µM [12] was < 5%. The inhibition at 10 µM [13] was < 5%, the inhibition at 10 µM [14] was 13.4% and the inhibition at 10 µM [15] was < 5%. The inhibition at 10 µM [16] was < 5%, the inhibition at 10 µM [17] was < 5% and the melting point was 240 to 241 °C.

With NC(=S)NNC(=O)c1cn(-c2ccc(S(N)(=O)=O)cc2)nc1-c1ccccc1 [Compound 9a, 2-[3-Phenyl-1-(4-sulfamoylphenyl)-1H-pyrazole-4-carbonyl] hydrazine-1-carbothioamide] the inhibition at 10 µM [1] was 10.9%, the inhibition at 10 µM [2] was < 5% and the inhibition at 10 µM [3] was 8.3%. For the same compound, the inhibition at 10 µM [4] was < 5%, the inhibition at 10 µM [5] was < 5% and the inhibition at 10 µM [6] was < 5%. The inhibition at 10 µM [7] was < 5%, the inhibition at 10 µM [8] was < 5% and the inhibition at 10 µM [9] was 23.9%. The inhibition at 10 µM [10] was < 5%, the inhibition at 10 µM [11] was < 5% and the inhibition at 10 µM [12] was 6.07%. For the same compound, the inhibition at 10 µM [13] was < 5%, the inhibition at 10 µM [14] was < 5% and the inhibition at 10 µM [15] was < 5%. The inhibition at 10 µM [16] was < 5%, the inhibition at 10 µM [17] was < 5% and the melting point was 180 to 181 °C.

In the case of Cc1ccc(-c2nn(-c3ccc(S(N)(=O)=O)cc3)cc2C(=O)NNC(N)=S)cc1 [Compound 9b, 2-[1-(4-Sulfamoylphenyl)-3-(p-tolyl)-1H-pyrazole-4-carbonyl] hydrazine-1-carbothioamide], the inhibition at 10 µM [1] is reported as < 5%, the inhibition at 10 µM [2] is reported as < 5% and the inhibition at 10 µM [3] is reported as < 5%. The inhibition at 10 µM [4] was < 5%, the inhibition at 10 µM [5] was < 5% and the inhibition at 10 µM [6] was < 5%. For the same compound, the inhibition at 10 µM [7] was < 5%, the inhibition at 10 µM [8] was < 5% and the inhibition at 10 µM [9] was < 5%. For the same compound, the inhibition at 10 µM [10] was < 5%, the inhibition at 10 µM [11] was < 5% and the inhibition at 10 µM [12] was 5.95%. For the same compound, the inhibition at 10 µM [13] was < 5%, the inhibition at 10 µM [14] was 6.3% and the inhibition at 10 µM [15] was < 5%. For the same compound, the inhibition at 10 µM [16] was < 5%, the inhibition at 10 µM [17] was < 5% and the melting point was 178 to 180 °C.
